Assays:
[1] = tested on: Tyrosine-protein kinase ABL1 (Homo sapiens), P00519 [M351T]; details: Compound concentration 1000.0 nM
[2] = tested on: Tyrosine-protein kinase ABL1 (Homo sapiens), P00519 [T315I]; details: Compound concentration 1000.0 nM
[3] = tested on: Tyrosine-protein kinase ABL1 (Homo sapiens), P00519 [T315I]; details: Compound concentration 1000.0 nM; remark: listed apart in the source
[4] = target: RAC-alpha serine/threonine-protein kinase (Homo sapiens) (UniProt P31749); details: Compound concentration 1000.0 nM
[5] = target: Aurora kinase A (Homo sapiens) (UniProt O14965); details: Compound concentration 1000.0 nM
[6] = target: Aurora kinase B (Homo sapiens) (UniProt Q96GD4); details: Compound concentration 1000.0 nM
[7] = target: Bone morphogenetic protein receptor type-1B (Homo sapiens) (UniProt O00238); details: Compound concentration 1000.0 nM
[8] = target: Calcium/calmodulin-dependent protein kinase type 1 (Homo sapiens) (UniProt Q14012); details: Compound concentration 1000.0 nM
[9] = target: Calcium/calmodulin-dependent protein kinase type IV (Homo sapiens) (UniProt Q16566); details: Compound concentration 1000.0 nM
[10] = target: Serine/threonine-protein kinase MRCK gamma (Homo sapiens) (UniProt Q6DT37); details: Compound concentration 1000.0 nM
[11] = tested on: Epidermal growth factor receptor (Homo sapiens), P00533 [UNDEFINED MUTATION]; details: Compound concentration 1000.0 nM
Sequence of Epidermal growth factor receptor (Homo sapiens), P00533 [UNDEFINED MUTATION] (P00533 whole entry, looked up, change not shown): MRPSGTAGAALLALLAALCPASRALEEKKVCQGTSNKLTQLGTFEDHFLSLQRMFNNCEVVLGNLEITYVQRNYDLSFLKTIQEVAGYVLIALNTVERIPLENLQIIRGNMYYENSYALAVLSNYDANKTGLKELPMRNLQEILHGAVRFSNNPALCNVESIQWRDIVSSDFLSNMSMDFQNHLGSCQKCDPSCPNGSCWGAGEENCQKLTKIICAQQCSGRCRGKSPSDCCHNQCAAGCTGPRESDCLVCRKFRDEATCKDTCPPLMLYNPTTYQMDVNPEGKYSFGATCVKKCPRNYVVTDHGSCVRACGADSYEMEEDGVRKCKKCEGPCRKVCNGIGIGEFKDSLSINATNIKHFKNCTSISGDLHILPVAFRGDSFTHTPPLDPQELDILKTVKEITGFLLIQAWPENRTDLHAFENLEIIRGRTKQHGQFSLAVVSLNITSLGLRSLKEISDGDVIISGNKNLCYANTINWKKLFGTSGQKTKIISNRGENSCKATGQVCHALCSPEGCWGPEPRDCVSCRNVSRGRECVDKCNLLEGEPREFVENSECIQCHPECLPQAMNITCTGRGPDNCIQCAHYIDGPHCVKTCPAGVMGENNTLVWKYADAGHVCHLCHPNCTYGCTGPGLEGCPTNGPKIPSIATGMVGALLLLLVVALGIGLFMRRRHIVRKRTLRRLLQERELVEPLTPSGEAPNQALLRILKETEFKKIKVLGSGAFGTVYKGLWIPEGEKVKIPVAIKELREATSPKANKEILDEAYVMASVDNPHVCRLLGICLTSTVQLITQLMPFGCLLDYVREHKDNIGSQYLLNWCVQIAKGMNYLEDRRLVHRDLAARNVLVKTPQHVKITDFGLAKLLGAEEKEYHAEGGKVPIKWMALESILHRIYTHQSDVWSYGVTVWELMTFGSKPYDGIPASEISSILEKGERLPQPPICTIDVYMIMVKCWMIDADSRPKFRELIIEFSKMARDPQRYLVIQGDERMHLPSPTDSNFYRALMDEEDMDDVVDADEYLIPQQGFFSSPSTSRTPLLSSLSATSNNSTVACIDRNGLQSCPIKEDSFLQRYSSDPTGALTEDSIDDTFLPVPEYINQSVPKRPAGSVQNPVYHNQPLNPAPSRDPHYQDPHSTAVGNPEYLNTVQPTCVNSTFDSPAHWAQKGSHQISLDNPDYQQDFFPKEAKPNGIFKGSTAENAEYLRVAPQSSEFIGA

[12] = tested on: Epidermal growth factor receptor (Homo sapiens), P00533 [UNDEFINED MUTATION]; details: Compound concentration 1000.0 nM; remark: listed apart in the source
[13] = target: Ephrin type-B receptor 1 (Homo sapiens) (UniProt P54762); details: Compound concentration 1000.0 nM
[14] = tested on: Receptor-type tyrosine-protein kinase FLT3 (Homo sapiens), P36888 [UNDEFINED MUTATION]; details: Compound concentration 1000.0 nM
[15] = target: Cyclin-G-associated kinase (Homo sapiens) (UniProt O14976); details: Compound concentration 1000.0 nM
[16] = target: Tyrosine-protein kinase JAK2 (Homo sapiens) (UniProt O60674); details: Compound concentration 1000.0 nM
[17] = target: Mitogen-activated protein kinase 9 (Homo sapiens) (UniProt P45984); details: Compound concentration 1000.0 nM
[18] = target: MAP/microtubule affinity-regulating kinase 4 (Homo sapiens) (UniProt Q96L34); details: Compound concentration 1000.0 nM
[19] = target: Dual specificity mitogen-activated protein kinase kinase 2 (Homo sapiens) (UniProt P36507); details: Compound concentration 1000.0 nM
[20] = target: Serine/threonine-protein kinase 38-like (Homo sapiens) (UniProt Q9Y2H1); details: Compound concentration 1000.0 nM
[21] = target: Mitogen-activated protein kinase 11 (Homo sapiens) (UniProt Q15759); details: Compound concentration 1000.0 nM
Sequence of Mitogen-activated protein kinase 11 (Homo sapiens) (Q15759 whole entry): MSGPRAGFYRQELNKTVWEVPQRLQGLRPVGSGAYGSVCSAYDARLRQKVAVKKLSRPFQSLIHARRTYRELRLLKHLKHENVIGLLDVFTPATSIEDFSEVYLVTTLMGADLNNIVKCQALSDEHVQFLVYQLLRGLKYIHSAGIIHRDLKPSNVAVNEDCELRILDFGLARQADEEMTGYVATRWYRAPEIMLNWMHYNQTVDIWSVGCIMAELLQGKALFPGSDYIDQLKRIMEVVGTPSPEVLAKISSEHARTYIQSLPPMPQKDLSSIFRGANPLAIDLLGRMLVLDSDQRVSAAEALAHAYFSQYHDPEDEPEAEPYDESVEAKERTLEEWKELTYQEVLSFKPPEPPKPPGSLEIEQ

[22] = target: Mitogen-activated protein kinase 13 (Homo sapiens) (UniProt O15264); details: Compound concentration 1000.0 nM
[23] = target: Serine/threonine-protein kinase PAK 2 (Homo sapiens) (UniProt Q13177); details: Compound concentration 1000.0 nM
Sequence of Serine/threonine-protein kinase PAK 2 (Homo sapiens) (Q13177 whole entry): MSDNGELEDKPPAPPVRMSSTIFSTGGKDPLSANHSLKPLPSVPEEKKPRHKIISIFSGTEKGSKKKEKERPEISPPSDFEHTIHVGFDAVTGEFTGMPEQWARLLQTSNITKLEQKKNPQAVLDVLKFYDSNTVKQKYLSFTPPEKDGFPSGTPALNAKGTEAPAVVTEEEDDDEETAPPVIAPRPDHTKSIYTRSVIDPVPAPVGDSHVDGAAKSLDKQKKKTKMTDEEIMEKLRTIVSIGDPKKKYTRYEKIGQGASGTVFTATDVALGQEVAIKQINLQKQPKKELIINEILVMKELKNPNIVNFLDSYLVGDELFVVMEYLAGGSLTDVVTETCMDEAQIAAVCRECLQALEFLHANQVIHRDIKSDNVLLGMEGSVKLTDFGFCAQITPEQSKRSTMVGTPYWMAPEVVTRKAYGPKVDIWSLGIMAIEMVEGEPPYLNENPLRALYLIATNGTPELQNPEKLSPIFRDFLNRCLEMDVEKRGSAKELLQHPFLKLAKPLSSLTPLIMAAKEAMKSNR

[24] = target: Serine/threonine-protein kinase PAK 5 (Homo sapiens) (UniProt Q9P286); details: Compound concentration 1000.0 nM
[25] = target: Cyclin-dependent kinase 17 (Homo sapiens) (UniProt Q00537); details: Compound concentration 1000.0 nM
[26] = target: Phosphatidylinositol 4,5-bisphosphate 3-kinase catalytic subunit alpha isoform (Homo sapiens) (UniProt P42336); details: Compound concentration 1000.0 nM
[27] = tested on: Phosphatidylinositol 4,5-bisphosphate 3-kinase catalytic subunit alpha isoform (Homo sapiens), P42336 [I800L]; details: Compound concentration 1000.0 nM
[28] = target: Phosphatidylinositol 5-phosphate 4-kinase type-2 beta (Homo sapiens) (UniProt P78356); details: Compound concentration 1000.0 nM
Sequence of Phosphatidylinositol 5-phosphate 4-kinase type-2 beta (Homo sapiens) (P78356 whole entry): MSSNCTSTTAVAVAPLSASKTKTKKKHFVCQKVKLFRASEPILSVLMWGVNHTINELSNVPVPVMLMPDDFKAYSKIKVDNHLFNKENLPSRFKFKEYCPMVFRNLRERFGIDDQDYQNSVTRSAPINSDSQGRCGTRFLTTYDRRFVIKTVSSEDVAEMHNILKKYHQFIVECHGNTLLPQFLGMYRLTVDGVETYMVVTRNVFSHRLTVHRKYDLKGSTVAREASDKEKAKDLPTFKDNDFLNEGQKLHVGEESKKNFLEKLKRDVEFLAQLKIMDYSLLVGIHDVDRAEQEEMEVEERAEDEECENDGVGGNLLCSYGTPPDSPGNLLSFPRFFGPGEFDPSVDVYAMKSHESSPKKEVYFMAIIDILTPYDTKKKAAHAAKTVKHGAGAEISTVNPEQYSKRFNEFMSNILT

[29] = target: cAMP-dependent protein kinase catalytic subunit alpha (Homo sapiens) (UniProt P17612); details: Compound concentration 1000.0 nM
[30] = target: Serine/threonine-protein kinase N1 (Homo sapiens) (UniProt Q16512); details: Compound concentration 1000.0 nM
[31] = target: cGMP-dependent protein kinase 1 (Homo sapiens) (UniProt Q13976); details: Compound concentration 1000.0 nM
Sequence of cGMP-dependent protein kinase 1 (Homo sapiens) (Q13976 whole entry): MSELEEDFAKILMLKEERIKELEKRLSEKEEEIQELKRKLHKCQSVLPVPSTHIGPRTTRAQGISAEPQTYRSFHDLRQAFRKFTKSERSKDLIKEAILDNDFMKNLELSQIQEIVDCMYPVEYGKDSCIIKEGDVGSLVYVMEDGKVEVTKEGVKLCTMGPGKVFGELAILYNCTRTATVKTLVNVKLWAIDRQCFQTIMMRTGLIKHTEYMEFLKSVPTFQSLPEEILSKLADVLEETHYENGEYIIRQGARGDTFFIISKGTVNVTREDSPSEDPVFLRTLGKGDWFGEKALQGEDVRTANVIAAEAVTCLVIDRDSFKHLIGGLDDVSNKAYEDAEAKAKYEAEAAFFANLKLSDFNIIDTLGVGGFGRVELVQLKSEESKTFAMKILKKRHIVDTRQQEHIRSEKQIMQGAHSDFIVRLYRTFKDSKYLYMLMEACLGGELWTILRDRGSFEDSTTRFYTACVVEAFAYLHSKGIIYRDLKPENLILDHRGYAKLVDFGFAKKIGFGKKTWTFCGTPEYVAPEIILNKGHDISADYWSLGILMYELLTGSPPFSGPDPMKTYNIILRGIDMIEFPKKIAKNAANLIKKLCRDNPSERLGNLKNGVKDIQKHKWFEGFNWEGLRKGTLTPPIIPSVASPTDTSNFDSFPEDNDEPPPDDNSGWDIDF

[32] = target: cGMP-dependent protein kinase 2 (Homo sapiens) (UniProt Q13237); details: Compound concentration 1000.0 nM
[33] = target: RAF proto-oncogene serine/threonine-protein kinase (Homo sapiens) (UniProt P04049); details: Compound concentration 1000.0 nM
Sequence of RAF proto-oncogene serine/threonine-protein kinase (Homo sapiens) (P04049 whole entry): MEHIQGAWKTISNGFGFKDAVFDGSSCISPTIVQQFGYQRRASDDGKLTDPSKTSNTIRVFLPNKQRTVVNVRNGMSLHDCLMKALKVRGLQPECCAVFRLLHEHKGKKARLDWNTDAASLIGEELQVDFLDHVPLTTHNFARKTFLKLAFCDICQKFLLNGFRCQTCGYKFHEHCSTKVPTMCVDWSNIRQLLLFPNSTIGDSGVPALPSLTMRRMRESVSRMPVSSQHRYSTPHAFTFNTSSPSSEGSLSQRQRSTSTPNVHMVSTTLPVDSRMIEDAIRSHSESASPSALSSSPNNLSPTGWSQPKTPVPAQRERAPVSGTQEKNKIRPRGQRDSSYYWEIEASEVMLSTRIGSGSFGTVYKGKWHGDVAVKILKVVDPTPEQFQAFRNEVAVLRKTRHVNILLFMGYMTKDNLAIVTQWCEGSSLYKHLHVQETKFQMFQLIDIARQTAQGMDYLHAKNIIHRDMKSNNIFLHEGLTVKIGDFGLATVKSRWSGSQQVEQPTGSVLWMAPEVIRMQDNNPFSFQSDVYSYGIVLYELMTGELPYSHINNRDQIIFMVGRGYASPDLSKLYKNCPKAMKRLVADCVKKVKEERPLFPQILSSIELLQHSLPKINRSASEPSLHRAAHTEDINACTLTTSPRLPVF

[34] = target: Ribosomal protein S6 kinase alpha-5 (Homo sapiens) (UniProt O75582); details: Compound concentration 1000.0 nM
[35] = target: Serine/threonine-protein kinase 16 (Homo sapiens) (UniProt O75716); details: Compound concentration 1000.0 nM
Sequence of Serine/threonine-protein kinase 16 (Homo sapiens) (O75716 whole entry): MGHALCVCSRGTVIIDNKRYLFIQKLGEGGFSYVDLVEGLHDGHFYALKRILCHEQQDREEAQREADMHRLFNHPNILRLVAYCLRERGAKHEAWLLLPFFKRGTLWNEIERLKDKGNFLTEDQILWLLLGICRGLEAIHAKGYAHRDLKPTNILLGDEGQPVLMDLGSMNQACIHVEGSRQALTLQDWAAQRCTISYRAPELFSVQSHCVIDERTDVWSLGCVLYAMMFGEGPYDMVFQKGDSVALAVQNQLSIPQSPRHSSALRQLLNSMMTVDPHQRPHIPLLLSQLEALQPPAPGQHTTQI

[36] = target: BDNF/NT-3 growth factors receptor (Homo sapiens) (UniProt Q16620); details: Compound concentration 1000.0 nM
[37] = target: Tyrosine-protein kinase TXK (Homo sapiens) (UniProt P42681); details: Compound concentration 1000.0 nM
[38] = target: Serine/threonine-protein kinase ULK3 (Homo sapiens) (UniProt Q6PHR2); details: Compound concentration 1000.0 nM
[39] = target: Wee1-like protein kinase 2 (Homo sapiens) (UniProt P0C1S8); details: Compound concentration 1000.0 nM
[40] = target: D(1A) dopamine receptor (Homo sapiens) (UniProt P21728); details: Compound concentration 10.0 uM
[41] = target: Sodium-dependent noradrenaline transporter (Homo sapiens) (UniProt P23975); details: Compound concentration 10.0 uM
Sequence of Sodium-dependent noradrenaline transporter (Homo sapiens) (P23975 whole entry): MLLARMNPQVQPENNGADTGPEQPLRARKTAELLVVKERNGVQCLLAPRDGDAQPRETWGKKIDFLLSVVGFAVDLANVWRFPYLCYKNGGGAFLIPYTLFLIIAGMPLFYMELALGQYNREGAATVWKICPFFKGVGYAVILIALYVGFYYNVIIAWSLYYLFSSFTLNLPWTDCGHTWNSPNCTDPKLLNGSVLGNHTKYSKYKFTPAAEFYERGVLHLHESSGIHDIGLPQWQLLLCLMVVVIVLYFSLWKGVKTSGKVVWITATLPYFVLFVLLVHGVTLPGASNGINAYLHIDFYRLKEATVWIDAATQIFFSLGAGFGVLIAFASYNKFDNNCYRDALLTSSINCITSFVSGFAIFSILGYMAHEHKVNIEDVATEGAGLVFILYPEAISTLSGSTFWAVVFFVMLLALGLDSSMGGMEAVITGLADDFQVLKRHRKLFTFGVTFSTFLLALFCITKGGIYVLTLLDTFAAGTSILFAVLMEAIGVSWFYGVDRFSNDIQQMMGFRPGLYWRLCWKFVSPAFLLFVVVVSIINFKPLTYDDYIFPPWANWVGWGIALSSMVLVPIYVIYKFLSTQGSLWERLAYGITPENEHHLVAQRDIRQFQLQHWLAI

[42] = target: Histamine H2 receptor (Homo sapiens) (UniProt P25021); details: Compound concentration 10.0 uM
[43] = target: Alpha-2B adrenergic receptor (Homo sapiens) (UniProt P18089); details: Compound concentration 10.0 uM
[44] = target: Beta-2 adrenergic receptor (Homo sapiens) (UniProt P07550); details: Compound concentration 10.0 uM
[45] = target: Beta-3 adrenergic receptor (Homo sapiens, UniProt P13945); details: Compound concentration 10.0 uM

COc1ccc2c(O[C@@H]3C[C@H]4C(=O)N[C@]5(C(=O)O)CC5/C=C\CCCCC[C@H](NC(=O)OC5CCCC5)C(=O)N4C3)cc(-c3csc(NC(=O)C(C)C)n3)nc2c1C (stereo not given in full) [BI 1230]
residual activity [1]: 90%
residual activity [2]: 92%
residual activity [3]: 87%
residual activity [4]: 100%
residual activity [5]: 69%
residual activity [6]: 91%
residual activity [7]: 77%
residual activity [8]: 100%
residual activity [9]: 95%
residual activity [10]: 100%
residual activity [11]: 81%
residual activity [12]: 62%
residual activity [13]: 100%
residual activity [14]: 80%
residual activity [15]: 95%
residual activity [16]: 64%
residual activity [17]: 71%
residual activity [18]: 99%
residual activity [19]: 77%
residual activity [20]: 43%
residual activity [21]: 100%
residual activity [22]: 100%
residual activity [23]: 91%
residual activity [24]: 100%
residual activity [25]: 100%
residual activity [26]: 75%
residual activity [27]: 65%
residual activity [28]: 100%
residual activity [29]: 97%
residual activity [30]: 100%
residual activity [31]: 100%
residual activity [32]: 84%
residual activity [33]: 95%
residual activity [34]: 100%
residual activity [35]: 100%
residual activity [36]: 94%
residual activity [37]: 86%
residual activity [38]: 93%
residual activity [39]: 100%
inhibition [40]: 46.3%
inhibition [41]: -4.46%
inhibition [42]: 39.4%
inhibition [43]: 60.3%
inhibition [44]: 24.6%
inhibition [45]: 57.4%

O=C(N[C@H]1CCCCC/C=C\C2C[C@@]2(C(=O)O)NC(=O)[C@@H]2C[C@@H](Oc3ccncc3)CN2C1=O)OC1CCCC1 (stereo not given in full) [BI 1675]
residual activity [1]: 89%
residual activity [2]: 100%
residual activity [3]: 84%
residual activity [4]: 100%
residual activity [5]: 92%
residual activity [6]: 89%
residual activity [7]: 95%
residual activity [8]: 87%
residual activity [9]: 90%
residual activity [10]: 90%
residual activity [11]: 85%
residual activity [12]: 49%
residual activity [13]: 100%
residual activity [14]: 88%
residual activity [15]: 90%
residual activity [16]: 100%
residual activity [17]: 94%
residual activity [18]: 100%
residual activity [19]: 87%
residual activity [20]: 80%
residual activity [21]: 100%
residual activity [22]: 96%
residual activity [23]: 79%
residual activity [24]: 83%
residual activity [25]: 89%
residual activity [26]: 98%
residual activity [27]: 100%
residual activity [28]: 100%
residual activity [29]: 92%
residual activity [30]: 100%
residual activity [31]: 100%
residual activity [32]: 88%
residual activity [33]: 100%
residual activity [34]: 89%
residual activity [35]: 79%
residual activity [36]: 100%
residual activity [37]: 87%
residual activity [38]: 82%
residual activity [39]: 100%
inhibition [40]: -4.18%
inhibition [41]: -6.94%
inhibition [42]: 15.6%
inhibition [43]: 8.15%
inhibition [44]: 12.8%
inhibition [45]: -9.47%
